Data on seven compounds can be found in PubChem BioAssay (NCI).

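The compound was tested at five concentrations on cells cultured in 96-well plates, with a 48-hour exposure period. GI50 marks 50% less growth. TGI: concentration producing complete growth inhibition.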

What all share (test): NCI-60 cell line screen, 48 h
Experiment [1] deals with NCI-H23 lung.
The test system of experiment [2] is NCI-H460 lung.
The subject of experiment [3] is EKVX NSCLC.
In experiment [4] the test system is SF-268 CNS.
Experiment [5] deals with OVCAR-8 ovarian.
The test system of experiment [6] is A498 renal.
Experiment [7] has as its system BT-549 breast.
The subject of experiment [8] is HCT-15 colon.
The subject of experiment [9] is 786-0 renal.
The subject of experiment [10] is U251 CNS.

Take `CCC(c1ccc(OC)cc1)C(CC)c1ccc(O)c(CN2CCCC2)c1` (stereo not given): the GI50 was 3.66 µM in experiment [1]; 3.41 µM in experiment [2]; 5.07 µM in experiment [3]; 5.6 µM in [4]; 3.08 µM in [5]; 2.51 µM in experiment [6]. Besides, the GI50 was 3.27 µM in experiment [7], 3.09 µM in experiment [8], 2.06 µM in experiment [9] and 2.25 µM in experiment [10]. Further, the TGI in experiment [1] worked out at 15.6 µM; in experiment [2], 11.6 µM; in experiment [3], 19.3 µM; in experiment [4] it was 21.5 µM; in [5], 10.7 µM; in experiment [6], 11.1 µM. Further, the TGI in experiment [7] was 11.5 µM; in [8], 10.7 µM; in experiment [9] it was 5.12 µM; in [10], 5.67 µM.

`COc1cccc(-c2nc(-c3ccc(NC(=O)c4ccccc4)cc3)[nH]c2-c2ccnc(Br)c2)c1`: the GI50 in [1] was 2.82 µM; in experiment [2], 3.53 µM; in experiment [3], 2.18 µM; in experiment [4], 6.13 µM; in experiment [5], 4.02 µM; in experiment [6] it was 1.74 µM. Besides, the GI50 is 3.3 µM in experiment [7], 0.78 µM in [8], 0.702 µM in [9] and 2.1 µM in experiment [10]. For the same compound, the TGI in experiment [1] is above 100 µM; in experiment [2], above 100 µM; in experiment [3] it was 9.47 µM; in [4], above 100 µM; in experiment [5] it was above 100 µM; in [6], 6.5 µM. In addition, the TGI was above 100 µM in experiment [7], 3.28 µM in experiment [8], 5.88 µM in experiment [9] and above 100 µM in experiment [10].

For the compound `O=C1/C(=C/c2ccccc2)CN(CCC(=O)N2C/C(=C\c3ccccc3)C(=O)/C(=C/c3ccccc3)C2)C/C1=C\c1ccccc1`, the GI50 in experiment [1] is 11.5 µM; in experiment [2] it was 35.9 µM; in experiment [3], 18.2 µM; in experiment [4] it was 12.2 µM; in experiment [5], 5.4 µM; in experiment [6] it was 1.5 µM. Besides, the GI50 in [7] is 9.91 µM; in experiment [8], 0.906 µM; in experiment [9] it was 9.8 µM; in experiment [10], 1.29 µM. For the same compound, the TGI is 33.5 µM in experiment [1]; above 100 µM in experiment [2]; 67.5 µM in experiment [3]; above 100 µM in [4]; above 100 µM in experiment [5]; 17.8 µM in experiment [6]. Also, the TGI in experiment [7] was found to be 36.4 µM; in [8] it was 45.1 µM; in experiment [9], 32.9 µM; in experiment [10] it was 11.3 µM.

For `CN(C1=NS(=O)(=O)N=C(N(C)c2ccccc2)O1)c1ccccc1`, the TGI in experiment [1] was 28.3 µM; in experiment [2] it was 47.7 µM; in experiment [3] it was 48.6 µM; in experiment [4] it was 57 µM; in [5], 33.3 µM; in experiment [6], 42.1 µM. The TGI was 39 µM in experiment [7], 39.2 µM in [8], 72.7 µM in [9] and 36.8 µM in [10].

As for `CCOC(=O)C#Cc1ccc([N+](=O)[O-])cc1`, the TGI came to 7.55 µM in experiment [1]; 29.2 µM in experiment [2]; 4.71 µM in experiment [3]; 8.62 µM in [4]; 10.5 µM in experiment [5]; 32 µM in experiment [6]. Besides, the TGI in experiment [7] turned out to be 4.76 µM; in [8], 4.33 µM; in [9] it was 3.41 µM; in [10] it was 3 µM.

For the compound `CCC1CCCCN1C(=S)N/N=C(\C)c1ccccn1` (stereo not given), the GI50 was 0.0365 µM in [1]; 0.0479 µM in [2]; 0.0728 µM in experiment [3]; 0.0766 µM in [4]; below 0.0255 µM in [5]; 0.136 µM in [6]. The GI50 was 0.092 µM in experiment [7], 0.0269 µM in experiment [8], 0.853 µM in experiment [9] and below 0.0172 µM in experiment [10]. Further, the TGI in experiment [1] was 5.01 µM; in [2], 3.17 µM; in experiment [3], 4.8 µM; in experiment [4] it was 5.62 µM; in [5], 2.06 µM; in experiment [6] it was 1.93 µM. Moreover, the TGI in experiment [7] came out at 2.72 µM; in experiment [8], 3.3 µM; in experiment [9], 2.39 µM; in experiment [10] it was 6.16 µM.

As to `CN(C)CCCN=c1cc2c(=O)n(CCCN(C)C)c(=O)c3c(NCCCN(C)C)cc4c(O)n(CCCN(C)C)c(=O)c1c4c3-2`, the GI50 in [1] is 5.39 µM; in [2] it was 0.395 µM; in experiment [3] it was 3.06 µM; in experiment [4], 0.964 µM; in experiment [5] it was 1.03 µM; in experiment [6], 1.15 µM. For the same compound, the GI50 in experiment [7] is 11.2 µM; in experiment [8] it was 4.3 µM; in experiment [9] it was 6.36 µM; in [10], 0.418 µM. Also, the TGI in [1] is 25.5 µM; in experiment [2], 1.86 µM; in [3], 21.3 µM; in experiment [4], 9.33 µM; in experiment [5], 11.4 µM; in experiment [6], 3.92 µM. Further, the TGI in experiment [7] worked out at 31.4 µM; in experiment [8], 46.4 µM; in [9], 87.4 µM; in experiment [10], 11 µM.
